Columns and labels:
NIH 3T3 cells = test: Foci formation assay, inhibition of PMA induced neoplastic transformation of NIH 3T3 cells; format: cell-based
Description: (§1) NIH 3T3 cells (American Type Culture Collection, Rockville, Md.) were cultured in DMEM supplemented with 10% FBS inoculated at 10^4 cells/35 […] dish. […] PMA and ibuprofen were dissolved in DMSO and stored in 5% DMSO stock solutions that were diluted a 1000-fold with culture media prior to use. […] The media containing freshly added PMA and ibuprofen were changed every 60 hours for both the foci formation assay and PKCα analysis by Western blot.
Subsequent to washing with a tris/ saline buffer, the cells were stained with a solution of 4% aqueous Giemsa stain in phosphate buffer (pH 7.0). Foci of transformed cells were then visible by eye due to their high local density and verified by under light microscopy.

PKCα = PKCα translocation in NIH 3T3 cells (subcellular fractionation, Western blot); format: cell-based; conditions: for PKCα localization: PMA 0.02 μg/ml, 2% FBS
Description: as §1
(§2) The cells were washed twice with phosphate-buffered saline (PBS) at 37° C. and subsequently lysed and scraped in 1 ml ice-cold protein lysis buffer (20 mM Tris-HCl, pH7.4, 2 mM EGTA, 2 mM EDTA, […] leupeptin and […] aprotinin) at 4° C. […] Briefly, cells were homogenized 10× in 15 ml glass homogenizer with a tight-fitting pestle and centrifuged at 900×g for 10 min. The resulting supernatant was then centrifuged at 100,000×g for 60 min to produce a nucleus-free membrane fraction (pellet) and a cytosol fraction (supernatant) for Western blots. The 900×g nuclear pellet was suspended in the 2 ml lysis buffer containing 10% sucrose and 0.1% Triton X-100 and washed twice by centrifuging at 1000×g for 10 min, then resuspended in 1 ml of the same buffer without Triton X-100 for Western blots. The purity of the fractions was monitored by light microscopy. […] The samples were stored at -70° C. until analysis.
(§3) 15 μl of human plasma, 15 μl of rat plasma, CSF or 50 μg of rat brain protein were denatured with 35 μl of sample buffer at 95° C. for 4 min. Denatured proteins were separated by 10% SDS-polyacrylamide gel electrophoresis with a 50 μg or 20 μg protein load for each sample for APPs or PKC, respectively, and electrophoretically transferred from gel to nitrocellulose membrane. […] The immunoreactive bands were developed using enhanced chemilumenescence (ECL. Amersham Life Sci., Little Chalfont, UK), following extensive washing with the blocking buffer. The PKC bands were verified in each case by competitively blocking the signal with the peptide corresponding to each of PKCs. The bands were quantitated by scanning densitometry. Quantitative comparisons were made between samples processed simultaneously on one blot.

[1] = tested on: c-jun expression in NIH 3T3 cells; conditions: cited from earlier work
APPs = conditions: 10 mg/kg P.O. bid, 7 days
Description: as §2, §3
(§4) Male Sprague-Dawley rats (12 month) were obtained from Harlan-Sprague-Dawley, Inc. (Indianapolis, Ind.) and housed under controlled conditions of temperature humidity and light/dark cycle. […] Rat stomach and duodenum were collected for the quantitation of gastroduodenal lesions. […]

APP = conditions: 10 mg/kg P.O. bid, 7 days
Description: as §2, §3, §4

[2] = Estimated unbound fraction of ibuprofen in culture media; format: in vitro ADME
[3] = tested on: APPs secretion by NIH 3T3 cell lines; conditions: 50 μM, 20 h
Ht-29 = conditions: cited from earlier work
A-427 = conditions: cited from earlier work
MCF 7/s = conditions: cited from earlier work
UACC 375 = conditions: cited from earlier work
rat colon cancer = conditions: carcinogen induced; cited from earlier work
[4] = tested on: mouse mammary glands cancer; conditions: carcinogen induced; cited from earlier work
lung and gastric cancer = conditions: carcinogen induced; cited from earlier work
[5] = cited from earlier work
neutrophil = conditions: by chemotactic agents; cited from earlier work

CCCCCCCCCCCCCC(=O)O[C@@H]1[C@@H](C)[C@@]2(O)[C@@H](C=C(CO)C[C@]3(O)C(=O)C(C)=C[C@@H]23)[C@@H]2C(C)(C)[C@]12OC(C)=O [PMA, phorbol 12-myristate 13-acetate]
dish area occupied by foci (NIH 3T3 cells; PMA 0.02 μg/ml, 2% FBS, 6 weeks): over 50% | PKCα localization (PKCα; 2 weeks): translocation from cytosol to membrane fractions, but interestingly translocation to the nuclear compartment was absent | PKCα localization (PKCα; 30 min): translocation of PKCα to the membrane fraction and some indication of PKCα appearing in the nuclear fraction | PKCα localization (PKCα; 4 hours): clear association of PKCα with the nuclear fraction | PKCα localization (PKCα; 18 hours): remained at 18 hours despite its disappearance from the membrane and cytosolic fractions | PKCα localization (PKCα; 48 hours): cytosolic PKCα had been regenerated but membrane and nuclear sites were not | PKCα translocation (PKCα; reduced media FBS plus PMA 0.02 μg/ml, 4 to 18 hours): significant translocation of PKCα to both nuclear and microsomal membranes | c-jun expression [1]: transiently induces c-jun expression

CC(C)Cc1ccc(C(C)C(=O)O)cc1 (stereo not drawn) [ibuprofen, α-4-(2-methylpropyl) benzeneacetic acid]
effect on NIH 3T3 cell growth patterns without PMA (NIH 3T3 cells; DMSO vehicle, no PMA): no effect | content of cytosolic APPs of rat brain (in words) (APPs): increased the content of cytosolic APPs | content of membrane APP of rat brain (in words) (APP): decreased content of membrane APP of rat brain, but not significantly | fraction unbound [2]: ~0.05 | APPs secretion (in words) [3]: increased APPs secretion | inhibition of proliferation (Ht-29): inhibits the proliferation | inhibition of proliferation (A-427): inhibits the proliferation | inhibition of proliferation (MCF 7/s): inhibits the proliferation | inhibition of proliferation (UACC 375): inhibits the proliferation | anticancer activity (rat colon cancer): demonstrated anticancer activity | anticancer activity [4]: demonstrated anticancer activity | anticancer activity (lung and gastric cancer): demonstrated anticancer activity | protein binding (in words) [5]: highly protein bound | oral absorption ([5]; suspensions, drops, caplets, chewable tablets): well absorbed orally | blocking of neutrophil activation (neutrophil): blocks neutrophil activation by chemotactic agents but this effect is not enantioselective

Reference: patent publication US6255347A (priority 1997, dated 2001)
